In brackets after ≈: the same amount, converted by molar mass. Where two headings read alike, the source gives them in different places.
Experiments:
C. parvum = C. parvum growth inhibition; assay type: cell-based, Cryptosporidium parvum; settings: read-out: (J) C. parvum EC50
[1] = Murine pharmacokinetics studies (oral, dried blood spots); assay type: in vivo, mice; settings: 50 mg/kg single oral dose; for Cmax / AUC(0-t): mouse, whole blood (dried blood spots); for Cmax: po, 50 mg/kg, read-out: Mouse Oral PK DBS: Average Cmax; for AUC(0-t): read-out: Mouse Oral PK DBS: Average AUC(0-24 h) (converted)
Method: Murine pharmacokinetics studies. The methods were performed as previously described. Briefly, test compounds were administered to mice by oral gavage (3 mice per compound) followed by tail blood sampling at intervals of 30, 60, 120, 240, 360, 480, and 1440 min. Blood samples were analyzed by extracting dried blood spots in acetonitrile for measurements of compound concentrations by liquid chromatography/tandem mass spectrometry.
Pharmacokinetics studies: Selected compounds were administered to mice in single oral doses at 50 mg/kg and tail blood was sampled at time intervals out to 24 h to assess blood exposure (Table 9).

[2] = test system: E. coli MB5746 (lpxC, tolC); test: microbe, parasite or virus in culture; assay type: cell-based; settings: Escherichia coli, read-out: MIC MB5746 (lpxC, tolC)
Method: (§1) Bacterial strains. Strains with ATCC designations were either obtained directly from the American Type Culture Collection (Manassas, Va.) or were kindly provided by the University of Washington Clinical Microbiology laboratory. Escherichia coli permeability mutants (properties shown in Table 1) were provided as a gift from Dr. Katherine Young at Merck (Rahway, N.J.).
(§2) Susceptibility testing: Minimum inhibitory concentration (MIC) determinations were performed in triplicate in 96-well round bottom microtiter plates (Corning, Corning N.Y.) as described by the Clinical and Laboratory Standards Institute (CLSI). Serial two-fold dilutions of compounds were added to plates in 50 μL volumes. An additional 50 μL of media containing bacterial cells (1×10^6 CFUs/mL) was then added to each well. Maximum DMSO concentrations were 0.5%. Plates were incubated at 37° C. for at least 18 h before reading the susceptibility result by optical absorbance (OD600) using a BioTek ELx800. The lowest concentration causing ≥90% growth inhibition compared to the untreated control was recorded as the MIC (and also corresponded to the visual MIC). MICs were measured at least twice and the higher value (if different) was recorded herein.

E. coli MB4902 (lpxC) = test: microbe, parasite or virus in culture; assay type: cell-based; settings: Escherichia coli, read-out: MIC MB4902 (lpxC)
Method: as §1, §2

E. coli MB5747 (tolC) = test: microbe, parasite or virus in culture; assay type: cell-based; settings: Escherichia coli, read-out: MIC MB5747 (tolC)
Method: as §1, §2

S. aureus (ATCC 29213) = test: Neutropenic murine S. aureus thigh infection model; assay type: in vivo, Staphylococcus aureus; settings: 75 mg/kg orally ×2; for reduction of bacterial load below stasis level: neutropenic mouse
Source text: Murine thigh infection model. Animal studies were approved by the Institutional Animal Care and Use Committee at the University of Washington, Seattle. Female specific pathogen free CD1 mice were obtained from Charles River (Wilmington, Mass.) weighing 23-27 grams and allowed at least 3 days to acclimate prior to study. Mice had access to food and water ad libitum. Neutropenia was induced by administering cyclophosphamide monohydrate (Sigma Aldrich C7397; St. Louis, Mo.) via IP injection 4 days (at 150 mg/kg) and 1 day (at 100 mg/kg) prior to infection. Neutropenic status was confirmed by neutrophil count <100 cells/mm^3.
Overnight culture of S. aureus (ATCC strain 29213) was diluted 1:100 in MHB and incubated until reaching mid-log phase (OD600<0.750). The inoculum was prepared by pelleting log-phase culture and re-suspending in sterile dPBS. The culture was adjusted to OD600 of 0.200 and diluted 1:100 in sterile dPBS correlating to an inoculum of ˜5*10^5 CFU/50 μL. The mice were infected by an intramuscular injection of 50 μL in the right posterior thigh while under isoflurane gas anesthesia. At 1 h post infection, one vehicle group was sacrificed for determination of initial inoculum ([…] level of infection). Mice were dosed at 2 and 12 h post-infection with test compounds (below); they received a SC dose of 5 mg/kg ketoprofen at 2 h post-infection for pain management. Mice were sacrificed at 24 h post-infection; the thigh muscle was sterilely removed, weighed, homogenized in 5 mLs dPBS, serially diluted, plated on tryptic soy agar in duplicate, and incubated overnight at 37° C. Colonies were counted to quantify the bacterial load in CFUs per gram of thigh tissue.
Vancomycin was given at 100 mg/kg SC in 100 μL in a 0.9% saline solution. […] Test compounds were administered PO in 200 μL of vehicle containing 60% Phosal 53 MCT (Lipoid, Ludwigshafen Germany), 30% PEG400 (Sigma Aldrich, St. Louis, Mo.), and 10% EtOH (Decon Laboratories, King of Prussia, Pa.).
Efficacy studies in mice: Selected compounds were tested for in vivo efficacy in the neutropenic S. aureus thigh infection model (9). Mice were immunosuppressed with cyclophosphamide then infected in a thigh with 5×10^5 S. aureus (ATCC 29213). Compounds were dosed orally with 75 mg/kg at 2 and 12 h post-infection. At 24 h, thighs were harvested for CFU counts.

[3] = test system: S. aureus VISA (ATCC 700699); test: MIC susceptibility testing; assay type: cell-based; settings: Staphylococcus aureus; read-out: S. aureus VISA (ATCC 700699) MIC
Outline: (§3)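 CLSI broth microdilution in triplicate, 5×10^5 CFU/mL final, ≤0.5% DMSO; MHB for S. aureus, CA-MHB for E. coli and E. faecium, CA-MHB plus 3% laked horse blood for S. pyogenes (5% CO2).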

[4] = test system: S. pneumoniae (ATCC 49619); test: MIC susceptibility testing; assay type: cell-based; settings: Streptococcus pneumoniae, ATCC49619, 18 h; medium with 3% laked horse blood; read-out: S. pneumoniae (ATCC 49619) MIC
[5] = test system: S. aureus MSSA (ATCC 19636); test: MIC susceptibility testing; assay type: cell-based; settings: Staphylococcus aureus; read-out: S. aureus MSSA (ATCC 19636) MIC
Outline: as §3

[6] = test system: S. aureus MRSA (ATCC 43300); test: MIC susceptibility testing; assay type: cell-based; settings: Staphylococcus aureus; read-out: S. aureus MRSA (ATCC 43300) MIC
Outline: as §3

[7] = mice infected with T. brucei, 50 mg/kg PO twice-per-day for 10 days; previous publication; cited from earlier work

| SMILES | EC50 (C. parvum; Cryptosporidium parvum) [nM] | Cmax [1] [ng/mL] | AUC(0-t) [1] [ng·h/mL] | MIC [2] [µg/mL] | MIC (E. coli MB4902 (lpxC)) [µg/mL] | MIC (E. coli MB5747 (tolC)) [µg/mL] | efficacy in thigh infection model (S. aureus (ATCC 29213)) | reduction of bacterial load below stasis level (S. aureus (ATCC 29213)) | MIC [3] [µg/mL] | MIC [4] [µg/mL] | MIC [5] [µg/mL] | MIC [6] [µg/mL] | Mouse Oral PK DBS: Average Cmax [1] [ng/mL] | effects on weight, grooming, or body condition [7] | EC50 (C. parvum) [nM] |
| --- | --- | --- | --- | --- | --- | --- | --- | --- | --- | --- | --- | --- | --- | --- | --- |
| CCn1c(Cc2ccc(OC)cc2Cl)cn(Cc2nc3nc(F)ccc3[nH]2)c1=O [Compound 2114, 4-[(2-chloro-4-methoxyphenyl)methyl]-3-ethyl-1-({5-fluoro-1H-imidazo[4,5-b]pyridin-2-yl}methyl)-2,3-dihydro-1H-imidazol-2-one] | 53 | 5450 ± 750 | 15000 |  |  |  |  |  |  |  |  |  |  |  |  |
| COc1cc(Cl)c(-c2cccc3nc(Cc4nc5nc(Cl)ccc5[nH]4)cn23)cc1OC [Compound 2144, 2-({5-chloro-1H-imidazo[4,5-b]pyridin-2-yl}methyl)-5-(2-chloro-4,5-dimethoxyphenyl)imidazo[1,2-a]pyridine] | > 2000 | ~9000 | 63200 | > 20 | > 20 | > 20 | significant reduction of bacterial load below the stasis level | approximately 2 log | 0.039 (≈ 0.0858 µM) | > 20 | 0.078 (≈ 0.172 µM) | 0.039 (≈ 0.0858 µM) | 8950 ± 1380 |  |  |
| Fc1ccc2nc(NCCCNCc3cc(Cl)cc(Cl)c3)[nH]c2n1 [Compound 1614, [(3,5-dichlorophenyl)methyl][3-({5-fluoro-3H-imidazo[4,5-b]pyridin-2-yl}amino)propyl]amine] |  |  |  |  |  |  |  |  | 10 (≈ 27.2 µM) | > 10 | 2.5 (≈ 6.79 µM) | 5 (≈ 13.6 µM) |  | no deleterious effects on weight, grooming, or body condition |  |
| CCn1c(Cc2ccc(OC)cc2Cl)cn(Cc2nc3nc(Cl)ccc3[nH]2)c1=O [Compound 2093, 1-({5-chloro-1H-imidazo[4,5-b]pyridin-2-yl}methyl)-4-[(2-chloro-4-methoxyphenyl)methyl]-3-ethyl-2,3-dihydro-1H-imidazol-2-one] | 38 | 7570 ± 2290 | 20400 | > 20 | > 20 | > 20 | weaker activity than the other MetRS inhibitors evaluated |  | 0.313 (≈ 0.724 µM) | > 20 | 0.313 (≈ 0.724 µM) | 0.313 (≈ 0.724 µM) |  |  | 33 |
| CC(=O)NC[C@H]1CN(c2ccc(N3CCOCC3)c(F)c2)C(=O)O1 [LNZ, linezolid] |  | 26500 ± 15200 | 94400 |  |  |  |  |  | 1.25 (≈ 3.71 µM) | 1.25 (≈ 3.71 µM) | 1.25 (≈ 3.71 µM) | 2.5 (≈ 7.41 µM) |  |  |  |
| Fc1ccc2nc(NCCCN[C@@H]3CCNc4c(Cl)cc(Cl)cc43)[nH]c2n1 [Compound 1717, (4R)-6,8-dichloro—N-[3-({5-fluoro-3H-imidazo[4,5-b]pyridin-2-yl}amino)propyl]-1,2,3,4-tetrahydroquinolin-4-amine, reference compound] |  | ~1500 | 15700 | > 20 | > 20 | > 20 | significant reduction of bacterial load below the stasis level | approximately 2 log | 0.156 (≈ 0.381 µM) | > 20 | 0.078 (≈ 0.191 µM) | 0.156 (≈ 0.381 µM) |  | no deleterious effects on weight, grooming, or body condition |  |

From patent US11584744B2 (UNIVERSITY OF WASHINGTON, priority 2017, dated 2023)
